Biological target: T1, Membrane-associated tyrosine- and threonine-specific cdc2-inhibitory kinase (Homo sapiens, UniProt Q99640)
T1 sequence (Q99640 whole entry): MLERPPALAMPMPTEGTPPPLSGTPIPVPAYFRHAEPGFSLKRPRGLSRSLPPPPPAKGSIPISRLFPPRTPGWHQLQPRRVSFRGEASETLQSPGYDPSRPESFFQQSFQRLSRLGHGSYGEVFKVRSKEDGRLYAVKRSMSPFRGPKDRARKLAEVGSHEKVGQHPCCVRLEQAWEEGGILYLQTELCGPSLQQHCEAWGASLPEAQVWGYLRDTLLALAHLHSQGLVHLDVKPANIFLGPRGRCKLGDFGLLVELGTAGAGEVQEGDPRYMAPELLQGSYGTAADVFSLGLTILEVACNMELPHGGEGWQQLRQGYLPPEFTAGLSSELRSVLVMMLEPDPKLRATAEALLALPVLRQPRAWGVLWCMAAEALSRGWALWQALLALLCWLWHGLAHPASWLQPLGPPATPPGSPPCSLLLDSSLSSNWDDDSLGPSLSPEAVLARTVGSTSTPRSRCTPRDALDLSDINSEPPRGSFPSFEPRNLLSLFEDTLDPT
Assay: Test for Binding to ATP Binding Site of MYT1
Description: Table 3-1 to 3-5: The binding capacity of each compound to the ATP binding site of MYT1 Kinase protein was evaluated. 5× Kinase Buffer A (manufactured by Thermo Fisher Scientific Inc., PV3189) was diluted to 5 times with Milli-Q water, thereby preparing 1× Kinase Buffer. Using 1× Kinase Buffer, MYT1 protein (manufactured by Carna Biosciences, Inc.) was diluted to a concentration of 0.005 μM and Eu-Anti-GST Antibody was diluted to a concentration of 1 μM. […] To a 96 well-plate, 2.5 μL of a compound diluted with DMSO was added. […] The mixture was well mixed and then allowed to stand at room temperature for 30 minutes. Thereafter, fluorescence wavelengths of 665 nm and 615 nm generated by irradiation with excitation light of 340 nm were detected using Envision (manufactured by PerkinElmer). The proportion of Tracer bound to MYT1 protein was calculated for every condition by dividing the intensity at the fluorescence wavelength of 665 nm by the intensity at the fluorescence wavelength of 615 nm.

Row | IC50 | SMILES
1 | 1.2 nM | N#C[C@H]1C[C@@H](Oc2cc3c(-c4cc(F)c(F)c5[nH]ncc45)c(N)c(=O)[nH]c3c3cccnc23)C1 [US20260062412, Compound C212]
2 | 0.83 nM | Nc1c(-c2cc(F)c(F)c3[nH]ncc23)c2cc(O[C@H]3C[C@@H](F)C3)c3ncccc3c2[nH]c1=O [US20260062412, Compound C213]
3 | 4.2 nM | CC[C@@H](C)Oc1cc2c(c3cccnc13)NC(=O)C(N)C2c1ccc(F)c2[nH]ncc12 (stereo partly drawn) [US20260062412, Compound C36]

— BindingDB's records for patent US20260062412 (Chugai Seiyaku Kabushiki Kaisha, 2026)
